The values that follow come from patent US10308667B2, “Oxadiazolopyridine derivatives for use as ghrelin O-acyl transferase (GOAT) inhibitors” (Boehringer Ingelheim International GmbH, priority 2016, dated 2019).

The test has as its target human GOAT (Homo sapiens (Human), UniProt Q96T53). Kind of test: Determination of hGOAT Activity in HEK293 Cells after Incubation with Test Compound. The settings on record: HEK293 cells stably transfected with preproghrelin and human GOAT; octanoate-BSA 100 μM; acyl-ghrelin in medium by ELISA after 5 hours. It is filed as cell-based. As to the method: Determination of hGOAT Activity in HEK293 Cells after Incubation with Test Compound
HEK293 cells stably transfected with two expression vectors, one coding for preproghrelin cDNA and a second for the expression of human GOATcDNA are used as a cellular model. After feeding the cells with octanoic acid for 5 hours, acyl-ghrelin is measured in cell culture medium by an ELISA procedure.
Cellline: Hek293 hGOAT/PPGhrl Clone #1B8Sodium octanoate, Sigma, Cat.-No. C5038
BD Poly-D-Lysin 384-well Plates, black-clear polystyrene BD Bioscience Cat.-No. […] ELISA human acylated Ghrelin Kit purchased from Bertin Pharman (detailed composition of buffers e.g. wash-puffer, ELISA buffer not known)
Cells are plated with a density of 5000 cells/well in 384-well poly-D-lysin plates and incubated for 1 day at 37° C., 5% CO2 in DMEM medium, 10% FCS, 1×NEAA, Puromycin (0.5 μg/ml) and G418 (1 mg/ml). Then the medium is changed to a identical medium without FCS and containing Octanoate-BSA (final concentration 100 μM each) and compound in DMSO (final DMSO concentration 0.3%). After incubation for 5 hours acylghrelin in the medium is measured by ELISA
The medium sample is diluted 1:25 in Elisa buffer, A 25 ul aliquot is transferred to a 384-well ELISA plate previously washed 4 times with 100 μL wash buffer, and 25 μl tracer-solution is added. After incubation overnight (˜20 h) at 4° C. temperature the plate is washed 4 times with 100 μl wash-buffer per well. Finally 50 μl Ellman's reagent is added to each well and the plate is incubated in the dark for 20 minutes. The absorbance is measured at 405 nm in an Envision multilabel reader and the amount of acylated ghrelin is calculated according to a acylated ghrelin standard curve provided in the same plate.
The analysis of the data is performed by calculation of the percentage of acyl-ghrelin produced in the presence of test compound compared to the amount of acyl-ghrelin produced in the vehicle control samples. An inhibitor of the GOAT enzyme will give values between 100% CTL (no inhibition) and 0% CTL (complete inhibition). IC50 values are calculated with Assay Explorer or other suited software based on curve fitting of results of 8 different compound concentrations.

human GOAT, sequence (Q96T53 whole entry): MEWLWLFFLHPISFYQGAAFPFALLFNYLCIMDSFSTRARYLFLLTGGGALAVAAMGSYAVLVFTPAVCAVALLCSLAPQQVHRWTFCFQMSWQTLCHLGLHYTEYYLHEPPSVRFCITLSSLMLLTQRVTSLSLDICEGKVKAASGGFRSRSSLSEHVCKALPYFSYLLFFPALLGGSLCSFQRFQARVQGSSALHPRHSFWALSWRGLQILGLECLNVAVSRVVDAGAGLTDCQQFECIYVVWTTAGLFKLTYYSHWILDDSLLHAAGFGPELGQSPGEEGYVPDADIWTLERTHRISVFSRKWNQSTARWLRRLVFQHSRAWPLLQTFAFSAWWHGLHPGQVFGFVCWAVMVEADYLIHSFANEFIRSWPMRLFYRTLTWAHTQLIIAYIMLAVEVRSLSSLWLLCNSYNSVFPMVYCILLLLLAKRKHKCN

For `Cc1nc2nonc2c(N)c1Cc1ncc(C#N)c(C(F)F)n1` [Example 79, 2-(7-amino-5-methyl-[1,2,5]oxadiazolo[3,4-b]pyridin-6-ylmethyl)-4-(difluoromethyl)pyrimidine-5-carbonitrile], the IC50 (usually the midpoint of a concentration-inhibition curve) was 0.59 nM.

Compound `Cc1nc2nonc2c(N)c1Cc1ccc(F)cn1` [Example 12, 6-(5-Fluoro-pyridin-2-ylmethyl)-5-methyl-[1,2,5]oxadiazolo[3,4-b]pyridin-7-ylamine] displayed an IC50 of 6.5 nM. With `Cc1nc2nonc2c(N)c1Cc1ccc2c(n1)OCCO2` [Example 18, 6-(2,3-Dihydro-[1,4]dioxino[2,3-b]pyridin-6-ylmethyl)-5-methyl-[1,2,5]oxadiazolo[3,4-b]pyridin-7-ylamine] the figure was 0.32 nM. For `Cc1nc2nonc2c(N)c1Cc1ccc(OC(F)F)c(=O)[nH]1` [Example 120, 6-(7-Amino-5-methyl-[1,2,5]oxadiazolo[3,4-b]pyridin-6-ylmethyl)-3-difluoromethoxy-1H-pyridin-2-one], the 50% inhibitory concentration (IC50) came out at 4.3 nM. The compound `Cc1nc2nonc2c(N)c1Cc1ccc(OC(F)F)cn1` [Example 14, 6-(5-Difluoromethoxy-pyridin-2-ylmethyl)-5-methyl-[1,2,5]oxadiazolo[3,4-b]pyridin-7-ylamine] yielded an IC50 of 0.67 nM. The result for `Cc1nc2nonc2c(N)c1Cc1ccc(C2CC2)c(C#N)n1` [Example 42, 6-(7-amino-5-methyl-[1,2,5]oxadiazolo[3,4-b]pyridin-6-ylmethyl)-3-cyclopropylpyridine-2-carbonitrile] reads 0.073 nM; that for `Cc1nc2nonc2c(N)c1Cc1ccc(-c2c(C)noc2C)c(N)n1` [Example 66, 6-[6-Amino-5-(3,5-dimethyl-isoxazol-4-yl)-pyridin-2-ylmethyl]-5-methyl-[1,2,5]oxadiazolo[3,4-b]pyridin-7-ylamine], 0.14 nM. With `Cc1nc2nonc2c(N)c1Cc1ccc(C#N)cn1` [Example 4, 6-(7-Amino-5-methyl-[1,2,5]oxadiazolo[3,4-b]pyridin-6-ylmethyl)-nicotinonitrile] the figure was 1.7 nM; with `Cc1nc2nonc2c(N)c1Cc1ccc(-c2cnn3c2CCC3)c(N)n1` [Example 65, 6-[6-Amino-5-(5,6-dihydro-4H-pyrrolo[1,2-b]pyrazol-3-yl)-pyridin-2-ylmethyl]-5-methyl-[1,2,5]oxadiazolo[3,4-b]pyridin-7-ylamine], 0.29 nM. Regarding `Cc1nc2nonc2c(N)c1Cc1ncc(C(F)(F)F)c(Cl)n1` [Example 50, 6-[4-chloro-5-(trifluoromethyl)pyrimidin-2-yl]methyl-5-methyl-[1,2,5]oxadiazolo[3,4-b]pyridin-7-amine], it took 2.5 nM to reach half-maximal inhibition (IC50). The compound `Cc1nc2nonc2c(N)c1Cc1ccc(OC(F)(F)F)cn1` [Example 17, 5-Methyl-6-(5-trifluoromethoxy-pyridin-2-ylmethyl)-[1,2,5]oxadiazolo[3,4-b]pyridin-7-ylamine] gave an IC50 of 0.22 nM. With `Cc1nc2nonc2c(N)c1Cc1ccc(C#N)c(OCC(F)F)n1` [Example 109, 6-(7-Amino-5-methyl-[1,2,5]oxadiazolo[3,4-b]pyridin-6-ylmethyl)-2-(2,2-difluoro-ethoxy)-nicotinonitrile] the figure was 0.093 nM; with `Cc1nc2nonc2c(N)c1Cc1cc(C#N)c(C(F)(F)F)cn1` [Example 2, 2-(7-Amino-5-methyl-[1,2,5]oxadiazolo[3,4-b]pyridin-6-ylmethyl)-5-trifluoromethyl-isonicotinonitrile], 3.6 nM.

In turn, `Cc1nc2nonc2c(N)c1Cc1ncc(C#N)c(C(C)(F)F)n1` [Example 82, 2-(7-amino-5-methyl-[1,2,5]oxadiazolo[3,4-b]pyridin-6-ylmethyl)-4-(1,1-difluoroethyl)pyrimidine-5-carbonitrile] returned a half-maximal inhibitory concentration (IC50) of 1 nM.

On to `Cc1nc2nonc2c(N)c1Cc1ccc(C#N)c(OCCC(F)(F)F)n1` [Example 110, 6-(7-Amino-5-methyl-[1,2,5]oxadiazolo[3,4-b]pyridin-6-ylmethyl)-2-(3,3,3-trifluoro-propoxy)-nicotinonitrile], for which the IC50 is 0.28 nM.
